Test results from PubChem BioAssay AID1963436 (Molecular Pharmacology Branch, DTP, NCI, 2024).

System: OVCAR-5 complex spheroid (HUVEC/MSC), viability % T/C
Experiment: Anticancer human tumor OVCAR-5 cell line growth inhibition [Asc];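 note: spheroids exposed to agents for 7 days before readout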;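 for viability, T/C: 100% = DMSO vehicle-treated wells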
Details: for IC50: curve of first compound; for viability, T/C: stronger effect = lower value
Method: Multicellular complex tumor spheroid response to apoptosis pathway targeting inhibitors Alrizomadlin, Pelcitoclax, and Dasminapant in combination with a variety of drugs and investigational agents in selected tumor cell lines
The MDM2 inhibitor alrizomadlin, the Bcl-2/Bcl-xL inhibitor pelcitoclax, and the IAPs inhibitor dasminapant were evaluated both individually and in combination with standard of care and investigational anticancer small molecules within a complex spheroid model of solid tumors. . Complex spheroids include a stromal component modeled by human endothelial cells (HUVEC) and fibroblasts modeled by human mesenchymal stem cells (MSCs). The concentration ranges selected for each drug and investigational agent were based upon clinically achievable concentrations if the clinical Cmax of the agent was known.
Compounds. The drugs and investigational agents: alrizomadlin (APG-115; NSC831270), pelcitoclax (APG-1252; NSC835773), dasminapant (APG-1387;NSC834197), TAK-243 (NSC785004), copanlisib (NSC809693), olaparib (NSC753686), talazoparib (NSC767125), cobimetinib (NSC 768068), eltanexor (KPT-8602, NSC 794443), abemaciclib (NSC 768073), sotorasib (NSC818433), adagrasib (NSC 831453), MRTX-1133 (NSC 836407), Iadademestat (ORY1001, NSC 806812), and RMC-4630 (NSC839698), were obtained from the NCI Developmental Therapeutics Program Chemical Repository. The FDA-approved anticancer drug set is available from the Developmental Therapeutics Program at https://dtp.cancer.gov/organization/dscb/obtaining/available plates.htm. […] The stock solutions were prepared in dimethyl sulfoxide (DMSO, Sigma-Aldrich, St. Louis, MO, cat. D2650) at 800-fold the tested concentration and stored at -70 degrees C prior to their use. All drugs and investigational agents were tested over a range starting from a high concentration at or near the clinical Cmax and decreasing in half-log increments. If the clinical Cmax for an agent had not been determined, the highest concentration tested was 10 microM.
The patient-derived cancer (PDC) cell lines include five colon adenocarcinomas: 186277-243-T-J2-PDC, 616215-338-R-J1-PDC, 439559-082-T-J2-PDC, 463943-066-T-J2-PDC, and 519858-162-T-J1-PDC; three pancreatic carcinomas: 323965-272-R-J2-PDC, 521955-158-R6-J3-PDC, and 521955-158-R2-J5-PDC; two uterine sarcomas: 327498-152-R-J2-PDC and 993429-296-R-J1-PDC; two rhabdomyosarcomas: 755483-174-R-J1-PDC and 772245-204-R-J1-PDC; two soft tissue sarcomas: 126254-015-R-J1-PDC and 494315-158-R-J1-PDC; two malignant fibrous histiocytomas: 317291-083-R-J1-PDC and 596521-263-R-J1-PDC; two breast carcinomas: 171881-019-R-J1-PDC and 885512-296-R-J2-PDC; and one ovarian carcinoma: 6556581-035-R-J-PDC were obtained from the NCI PDMR, (https://pdmr.cancer.gov). The established cell lines HSSY-2 synovial sarcoma (RRID:CVCL 8719), SYO-1 synovial sarcoma (RRID:CVCL_7146), MPNST malignant peripheral neural sheath tumor were obtained from the Sloan Kettering Institute. The following established cell lines were purchased from the American Type Culture Collection (ATCC, Manassas, VA), Sor the received from the NCI repository:, PANC-1 pancreatic carcinoma (CRL-1469, RRID:CVCL_0480), OVCAR-5 ovarian carcinoma (RRID:CVCL_1628), OVCAR-8 ovarian carcinoma (RRID:CVCL_1629), , MCF-7 breast carcinoma (CRL-12584, RRID:CVCL_0031), MDA-MB-231 breast carcinoma (CRL-12532, RRID:CVCL_0062), NCI-H1876 small cell lung carcinoma (CRL-5902, RRID:CVCL_1503), NCI-H510A small cell lung carcinoma (HTB-184, RRID:CVCL_1565), NCI-H1417 (CRL-5869, RRID:CVCL_1469), and NCI-H196 small cell lung carcinoma (CRL-5823, RRID:CVCL_1509). Dr. Peter Houghton (Greehey Children's Cancer Research Institute, University of Texas Health Science Center, San Antonio, TX) provided Rh-18 rhabdomyosarcoma (RRID:CVCL_1659). Pooled donor human umbilical vein endothelial cells (HUVEC, Lonza, cat. CC-2519) and human mesenchymal stem cells (hMSC, Lonza, cat. PT-2501) were purchased from Lonza (Walkersville, MD).
Cell Culture. […]

[1] = second compound 0.03 µM, first compound 0.0316 µM
[2] = second compound 0.03 µM, first compound 0.1 µM
[3] = second compound 0.0949 µM, first compound 0.0316 µM
[4] = second compound 0.0949 µM, first compound 0.1 µM
[5] = second compound 0.3 µM, first compound 0.0316 µM
[6] = second compound 0.3 µM, first compound 0.1 µM
[7] = second compound 0.949 µM, first compound 0.0316 µM
[8] = second compound 0.949 µM, first compound 0.1 µM
[9] = second compound 3 µM, first compound 0.0316 µM
[10] = second compound 3 µM, first compound 0.1 µM

## Cn1ncnc1[C@H]1c2n[nH]c(=O)c3cc(F)cc(c23)N[C@@H]1c1ccc(F)cc1 + CCN1C(C(=O)NC23CCC(C(=O)O)(CC2)CC3)C(c2cccc(Cl)c2F)C2(C(=O)Nc3cc(Cl)ccc32)C12CCCCC2
Second compound 0.03 µM
  IC50: > 0.1 µM
Second compound 0.0949 µM
  IC50: > 0.1 µM
Second compound 0.3 µM
  IC50: > 0.1 µM
Second compound 0.949 µM
  IC50: > 0.1 µM
Second compound 3 µM
  IC50: > 0.1 µM
Second compound 0.03 µM, first compound 0.000316 µM
  viability, T/C: 108%
Second compound 0.03 µM, first compound 0.001 µM
  viability, T/C: 108%
Second compound 0.03 µM, first compound 0.00316 µM
  viability, T/C: 88.9%
Second compound 0.03 µM, first compound 0.01 µM
  viability, T/C: 94%
[1]
  viability, T/C: 96%
[2]
  viability, T/C: 91.1%
Second compound 0.0949 µM, first compound 0.000316 µM
  viability, T/C: 103%
Second compound 0.0949 µM, first compound 0.001 µM
  viability, T/C: 109%
Second compound 0.0949 µM, first compound 0.00316 µM
  viability, T/C: 89.7%
Second compound 0.0949 µM, first compound 0.01 µM
  viability, T/C: 91%
[3]
  viability, T/C: 101%
[4]
  viability, T/C: 82.8%
Second compound 0.3 µM, first compound 0.000316 µM
  viability, T/C: 112%
Second compound 0.3 µM, first compound 0.001 µM
  viability, T/C: 114%
Second compound 0.3 µM, first compound 0.00316 µM
  viability, T/C: 102%
Second compound 0.3 µM, first compound 0.01 µM
  viability, T/C: 80.7%
[5]
  viability, T/C: 98.3%
[6]
  viability, T/C: 98.8%
Second compound 0.949 µM, first compound 0.000316 µM
  viability, T/C: 112%
Second compound 0.949 µM, first compound 0.001 µM
  viability, T/C: 121%
Second compound 0.949 µM, first compound 0.00316 µM
  viability, T/C: 106%
Second compound 0.949 µM, first compound 0.01 µM
  viability, T/C: 97.4%
[7]
  viability, T/C: 106%
[8]
  viability, T/C: 88.7%
Second compound 3 µM, first compound 0.000316 µM
  viability, T/C: 109%
Second compound 3 µM, first compound 0.001 µM
  viability, T/C: 105%
Second compound 3 µM, first compound 0.00316 µM
  viability, T/C: 109%
Second compound 3 µM, first compound 0.01 µM
  viability, T/C: 91.4%
[9]
  viability, T/C: 106%
[10]
  viability, T/C: 89%

## O=C(c1cc(Cc2n[nH]c(=O)c3ccccc23)ccc1F)N1CCN(C(=O)C2CC2)CC1 + CCN1C(C(=O)NC23CCC(C(=O)O)(CC2)CC3)C(c2cccc(Cl)c2F)C2(C(=O)Nc3cc(Cl)ccc32)C12CCCCC2
Second compound 0.03 µM
  IC50: > 10 µM
Second compound 0.0949 µM
  IC50: > 10 µM
Second compound 0.3 µM
  IC50: > 10 µM
Second compound 0.949 µM
  IC50: > 10 µM
Second compound 3 µM
  IC50: > 10 µM
[1]
  viability, T/C: 96%
[2]
  viability, T/C: 104%
Second compound 0.03 µM, first compound 0.316 µM
  viability, T/C: 83.9%
Second compound 0.03 µM, first compound 1 µM
  viability, T/C: 86.8%
Second compound 0.03 µM, first compound 3.16 µM
  viability, T/C: 92.5%
Second compound 0.03 µM, first compound 10 µM
  viability, T/C: 83.3%
[3]
  viability, T/C: 101%
[4]
  viability, T/C: 110%
Second compound 0.0949 µM, first compound 0.316 µM
  viability, T/C: 93.8%
Second compound 0.0949 µM, first compound 1 µM
  viability, T/C: 85.8%
Second compound 0.0949 µM, first compound 3.16 µM
  viability, T/C: 85.4%
Second compound 0.0949 µM, first compound 10 µM
  viability, T/C: 85%
[5]
  viability, T/C: 101%
[6]
  viability, T/C: 97.2%
Second compound 0.3 µM, first compound 0.316 µM
  viability, T/C: 97.7%
Second compound 0.3 µM, first compound 1 µM
  viability, T/C: 75.1%
Second compound 0.3 µM, first compound 3.16 µM
  viability, T/C: 86.3%
Second compound 0.3 µM, first compound 10 µM
  viability, T/C: 82.7%
[7]
  viability, T/C: 106%
[8]
  viability, T/C: 105%
Second compound 0.949 µM, first compound 0.316 µM
  viability, T/C: 102%
Second compound 0.949 µM, first compound 1 µM
  viability, T/C: 92%
Second compound 0.949 µM, first compound 3.16 µM
  viability, T/C: 89%
Second compound 0.949 µM, first compound 10 µM
  viability, T/C: 97.6%
[9]
  viability, T/C: 104%
[10]
  viability, T/C: 115%
Second compound 3 µM, first compound 0.316 µM
  viability, T/C: 111%
Second compound 3 µM, first compound 1 µM
  viability, T/C: 96.5%
Second compound 3 µM, first compound 3.16 µM
  viability, T/C: 88.9%
Second compound 3 µM, first compound 10 µM
  viability, T/C: 91.5%
